The subject of assay [1] is Staphylococcus aureus. The assay is described as follows: Antibacterial activity against Staphylococcus aureus ATCC 25923 assessed as inhibition of bacterial growth incubated for 24 hrs by spectrophotometric analysis. In kind it is functional, organism-based.
The test system of assay [2] is SW-620. The assay is described as follows: Cytotoxicity against human SW620 cells assessed as inhibition of cell growth incubated for 68 hrs by MTT assay. As to conditions: SW-620, 68 h. Format: functional, cell-based. A general note: Tetrazolium assays rely on reduction of a dye to a coloured formazan, in cell work by metabolically active cells.
In assay [3] the test system is Bacillus subtilis. The assay can be described thus: Antibacterial activity against Bacillus subtilis ATCC 6633 assessed as inhibition of bacterial growth incubated for 24 hrs by spectrophotometric analysis. Format: functional, organism-based.
Assay [4] has as its system NCI-H460. The assay is described as follows: Cytotoxicity against human NCI-H460 cells assessed as inhibition of cell growth incubated for 68 hrs by MTT assay. Format: functional, cell-based. The following applies: NCI-H460, 68 h.
Assay [5] has as its system Escherichia coli. The assay is described as follows: Antibacterial activity against Escherichia coli ATCC 11775 assessed as inhibition of bacterial growth incubated for 24 hrs by spectrophotometric analysis. Format: functional, organism-based.
In assay [6] the test system is Candida albicans. The assay is described as follows: Antifungal activity against Candida albicans ATCC 10231 assessed as inhibition of fungal growth incubated for 48 hrs by spectrophotometric analysis. In kind it is functional, organism-based.

Molecules are shown by their SMILES. pIC50: −log10 of the molar value. Activity calls are given as the source filed them. No cut-off for these calls is given here. Bounds are passed on as bounds.

Take `CC(C)(O[C@@H]1O[C@H](CO)[C@@H](O)[C@H](O)[C@@H]1O)[C@@H]1CC[C@]2(C=O)[C@H](CC[C@@]3(C)[C@H]2CC[C@H]2Cc4c([nH]c5ccccc45)[C@@]23C)O1`: the result in assay [1], in assay [3], in assay [5] and in assay [6] was inactive. Moreover, the pIC50 in assay [2] and in assay [4] was less than 4.52 each time.

For the compound `CC(C)(O[C@@H]1O[C@H](CO)[C@@H](O)[C@H](O)[C@@H]1O)[C@H]1O[C@H]2CC[C@@]3(C)[C@@H](CC[C@H]4Cc5c([nH]c6ccccc56)[C@@]43C)C2=C[C@H]1O`, the result in assay [1], in assay [3], in assay [5] and in assay [6] was inactive. Further, the pIC50 in assay [2] and in assay [4] was less than 4.52 throughout.

With `CC(C)(O[C@@H]1O[C@H](CO)[C@@H](O)[C@H](O)[C@@H]1O)[C@H]1O[C@@]2(O)CC[C@@]3(C)[C@@H](CC[C@H]4Cc5c([nH]c6ccccc56)[C@@]43C)C2=CC1=O`, the outcome in assay [1], in assay [3], in assay [5] and in assay [6] was inactive. Also, the pIC50 in assay [2] and in assay [4] was less than 4.52 each time.

Regarding `CC(C)(O[C@@H]1O[C@H](CO)[C@@H](O)[C@H](O)[C@@H]1O)[C@H]1O[C@H]2CC[C@@]3(C)[C@@H](CC[C@H]4Cc5c([nH]c6ccccc56)[C@@]43C)C2=CC1=O`, the result in assay [1], in assay [3], in assay [5] and in assay [6] was inactive. Besides, the pIC50 in assay [2] and in assay [4] was less than 4.52 throughout.

As to `CC(C)(O[C@@H]1O[C@H](CO)[C@@H](O)[C@H](O)[C@@H]1O)[C@@H]1CC[C@]2(CO)[C@H](CC[C@@]3(C)[C@H]2CC[C@H]2Cc4c([nH]c5ccccc45)[C@@]23C)O1`, the outcome in assay [1], in assay [3], in assay [5] and in assay [6] was inactive. Besides, the pIC50 in assay [2] and in assay [4] was less than 4.52 in each case.

For the compound `CC(C)(O[C@@H]1O[C@H](CO)[C@@H](O)[C@H](O)[C@@H]1O)[C@@H]1CC[C@]2(C)[C@H](CC[C@@]3(C)[C@H]2CC[C@H]2Cc4c([nH]c5ccccc45)[C@@]23C)O1`, the outcome in assay [1], in assay [3], in assay [5] and in assay [6] was inactive. Further, the pIC50 in assay [2] and in assay [4] was less than 4.52 each time.

(Values after ChEMBL document CHEMBL5252558, “Noonindoles G-L: Indole Diterpene Glycosides from the Australian Marine-Derived Fungus Aspergillus noonimiae CMB-M0339” (J Nat Prod, 2023).)
